Experimental data: ChEMBL document CHEMBL3112424, “Discovery and optimization of pyrimidone indoline amide PI3Kβ inhibitors for the treatment of phosphatase and tensin homologue (PTEN)-deficient cancers” (J Med Chem, 2014)

How the values were obtained:
[1] = Half life in Beagle dog at 10 mg/kg, po; assay type: ADME, organism-based, Canis lupus familiaris; set-up: dose 10 mg/kg, route oral; details: in vivo
[2] = Tmax in Beagle dog at 10 mg/kg, po; assay type: ADME, organism-based, Canis lupus familiaris; set-up: dose 10 mg/kg, route oral; details: in vivo
[3] = Cmax in Beagle dog at 10 mg/kg, po; assay type: ADME, organism-based, Canis lupus familiaris; set-up: dose 10 mg/kg, route oral; details: in vivo
[4] = Half life in Beagle dog at 3 mg/kg, iv; assay type: ADME, organism-based, Canis lupus familiaris; set-up: dose 3 mg/kg, route intravenous; details: in vivo
[5] = Oral bioavailability in nude rat at 10 mg/kg; assay type: ADME, organism-based; details: in vivo
[6] = Volume of distribution at steady state in nude rat at 3 mg/kg, iv; assay type: ADME, organism-based; set-up: dose 3 mg/kg, route intravenous; details: in vivo, read-out: Vdss
[7] = Clearance in nude rat at 3 mg/kg, iv; assay type: ADME, organism-based; set-up: dose 3 mg/kg, route intravenous; details: in vivo
Mus musculus [8] = test: Toxicity in SCID mouse xenografted with BRAF-V600E/PTEN-deficient human UACC62 cells at 150 mg/kg, po bid; assay type: organism-based, UACC-62; set-up: dose 150 mg/kg, route oral; details: in vivo
UACC-62 = test: Antitumor activity against BRAF-V600E/PTEN-deficient human UACC62 cells xenografted in SCID mouse assessed as tumor growth inhibition at 150 mg/kg, po bid measured on day 15; assay type: functional
Plasma = test: Fraction unbound in SCID mouse plasma xenografted with BRAF-V600E/PTEN-deficient human UACC62 cells at 100 mg/kg, po; assay type: ADME, organism-based, UACC-62; set-up: dose 100 mg/kg, route oral; details: in vivo
Mus musculus [9] = test: Toxicity in SCID mouse xenografted with PTEN-deficient human PC3 cells assessed as body weight loss at 150 mg/kg, po bid; assay type: organism-based, PC-3; set-up: dose 150 mg/kg, route oral; details: in vivo
PC-3 = test: Antitumor activity against PTEN-deficient human PC3 cells xenografted in SCID mouse assessed as tumor growth inhibition at 150 mg/kg, po bid measured on day 31; assay type: functional
[10] = Plasma concentration in SCID mouse xenografted with PTEN-deficient human PC3 cells at 100 mg/kg, po after 24 hrs; assay type: ADME, organism-based, PC-3; set-up: dose 100 mg/kg, route oral
[11] = Plasma concentration in SCID mouse xenografted with PTEN-deficient human PC3 cells at 100 mg/kg, po after 16 hrs; assay type: ADME, organism-based, PC-3; set-up: dose 100 mg/kg, route oral
[12] = Plasma concentration in SCID mouse xenografted with PTEN-deficient human PC3 cells at 100 mg/kg, po after 1 hr; assay type: ADME, organism-based, PC-3; set-up: dose 100 mg/kg, route oral
Mus musculus [13] = test: In vivo inhibition of PI3Kbeta in tumor of SCID mouse xenografted with PTEN-deficient human PC3 cells assessed as inhibition of Akt phosphorylation at S473 at 100 mg/kg, po up to 7 hrs; assay type: functional; details: PC-3, 7 h
[14] = Oral bioavailability in Balb/c mouse plasma at 100 mg/kg by LC-MS/MS analysis; assay type: ADME, organism-based
[15] = Tmax in Balb/c mouse plasma at 100 mg/kg, po by LC-MS/MS analysis; assay type: ADME, organism-based; set-up: dose 100 mg/kg, route oral
[16] = Cmax in Balb/c mouse plasma at 10 mg/kg, po after 15 to 30 mins by LC-MS/MS analysis; assay type: ADME, organism-based; set-up: dose 10 mg/kg, route oral
[17] = Volume of distribution at steady state in Balb/c mouse plasma at 3 mg/kg, iv by LC-MS/MS analysis; assay type: ADME, organism-based; set-up: dose 3 mg/kg, route intravenous; details: read-out: Vdss
[18] = Clearance in Balb/c mouse plasma at 3 mg/kg, iv by LC-MS/MS analysis; assay type: ADME, organism-based; set-up: dose 3 mg/kg, route intravenous
[19] = AUC (infinity) in Balb/c mouse plasma at 3 mg/kg, iv by LC-MS/MS analysis; assay type: ADME, organism-based; set-up: time infinity, dose 3 mg/kg, route intravenous
[20] = molecular target: Phosphatidylinositol 3-kinase catalytic subunit type 3 (Homo sapiens, UniProt Q8NEB9); test: Inhibition of VPS34 (unknown origin)
Chain of Phosphatidylinositol 3-kinase catalytic subunit type 3 (Q8NEB9 whole entry, the tested form may be a part): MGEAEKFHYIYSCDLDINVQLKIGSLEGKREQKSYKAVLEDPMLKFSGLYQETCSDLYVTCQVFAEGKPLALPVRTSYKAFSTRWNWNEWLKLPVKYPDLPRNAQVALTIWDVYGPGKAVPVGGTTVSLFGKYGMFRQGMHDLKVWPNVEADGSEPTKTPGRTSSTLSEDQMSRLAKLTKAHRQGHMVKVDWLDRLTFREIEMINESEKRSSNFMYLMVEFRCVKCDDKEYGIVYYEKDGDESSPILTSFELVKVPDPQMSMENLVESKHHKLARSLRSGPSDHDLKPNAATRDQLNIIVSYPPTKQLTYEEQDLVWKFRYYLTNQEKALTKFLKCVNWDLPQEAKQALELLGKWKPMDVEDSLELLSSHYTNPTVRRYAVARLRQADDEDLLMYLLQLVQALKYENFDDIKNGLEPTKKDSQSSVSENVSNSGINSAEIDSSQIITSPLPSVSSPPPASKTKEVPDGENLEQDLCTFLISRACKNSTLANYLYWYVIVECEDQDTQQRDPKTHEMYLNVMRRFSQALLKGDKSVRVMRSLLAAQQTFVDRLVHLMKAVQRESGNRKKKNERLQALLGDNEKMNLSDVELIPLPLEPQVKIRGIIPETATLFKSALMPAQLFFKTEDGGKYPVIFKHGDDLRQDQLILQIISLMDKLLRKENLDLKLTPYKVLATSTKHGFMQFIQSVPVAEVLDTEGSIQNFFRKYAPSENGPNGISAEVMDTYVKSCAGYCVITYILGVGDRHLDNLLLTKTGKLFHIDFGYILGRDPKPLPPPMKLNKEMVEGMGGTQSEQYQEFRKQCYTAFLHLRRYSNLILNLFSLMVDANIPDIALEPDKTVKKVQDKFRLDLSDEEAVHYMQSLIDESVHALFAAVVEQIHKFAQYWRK

[21] = molecular target: T1, Phosphatidylinositol 3-kinase C2 domain-containing subunit gamma (Homo sapiens, UniProt O75747); test: Inhibition of PI3KC2gamma (unknown origin)
T1 sequence (O75747 whole entry): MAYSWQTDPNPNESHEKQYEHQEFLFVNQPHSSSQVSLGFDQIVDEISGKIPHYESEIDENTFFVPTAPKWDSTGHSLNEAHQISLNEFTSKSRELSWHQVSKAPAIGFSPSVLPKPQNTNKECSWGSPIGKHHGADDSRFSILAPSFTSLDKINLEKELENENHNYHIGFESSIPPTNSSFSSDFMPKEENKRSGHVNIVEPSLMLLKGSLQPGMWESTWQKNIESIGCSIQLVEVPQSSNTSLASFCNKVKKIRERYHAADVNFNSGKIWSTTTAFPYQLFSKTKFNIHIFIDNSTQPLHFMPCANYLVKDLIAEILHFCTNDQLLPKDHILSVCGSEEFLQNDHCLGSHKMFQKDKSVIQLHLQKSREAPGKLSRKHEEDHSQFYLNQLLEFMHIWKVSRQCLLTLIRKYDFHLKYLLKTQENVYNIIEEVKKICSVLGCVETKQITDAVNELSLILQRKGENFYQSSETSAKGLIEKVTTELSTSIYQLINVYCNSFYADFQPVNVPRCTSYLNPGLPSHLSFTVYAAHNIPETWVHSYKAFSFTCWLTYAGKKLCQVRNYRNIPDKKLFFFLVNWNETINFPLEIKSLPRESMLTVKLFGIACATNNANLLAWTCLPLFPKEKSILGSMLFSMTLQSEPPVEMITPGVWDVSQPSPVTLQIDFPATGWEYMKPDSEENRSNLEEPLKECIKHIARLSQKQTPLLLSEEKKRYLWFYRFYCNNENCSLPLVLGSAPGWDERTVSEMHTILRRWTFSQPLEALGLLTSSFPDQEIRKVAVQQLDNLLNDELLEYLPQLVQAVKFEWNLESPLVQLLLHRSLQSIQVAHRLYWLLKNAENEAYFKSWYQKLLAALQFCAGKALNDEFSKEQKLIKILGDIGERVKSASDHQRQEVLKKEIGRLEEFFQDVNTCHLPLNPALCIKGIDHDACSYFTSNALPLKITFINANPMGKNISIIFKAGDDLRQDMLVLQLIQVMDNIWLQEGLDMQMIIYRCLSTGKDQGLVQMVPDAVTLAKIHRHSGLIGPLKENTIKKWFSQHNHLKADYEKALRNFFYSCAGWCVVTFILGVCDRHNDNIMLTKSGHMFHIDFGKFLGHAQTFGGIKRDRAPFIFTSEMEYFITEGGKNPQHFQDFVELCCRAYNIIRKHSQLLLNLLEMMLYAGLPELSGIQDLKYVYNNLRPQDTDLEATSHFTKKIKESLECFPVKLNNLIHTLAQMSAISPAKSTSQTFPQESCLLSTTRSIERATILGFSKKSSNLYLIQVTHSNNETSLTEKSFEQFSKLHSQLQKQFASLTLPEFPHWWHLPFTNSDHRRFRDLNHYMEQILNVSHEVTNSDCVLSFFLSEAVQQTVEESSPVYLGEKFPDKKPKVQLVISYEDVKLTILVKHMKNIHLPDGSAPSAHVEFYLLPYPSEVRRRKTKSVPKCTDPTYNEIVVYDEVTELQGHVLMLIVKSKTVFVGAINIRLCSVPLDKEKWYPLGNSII

[22] = molecular target: Phosphatidylinositol 4-phosphate 3-kinase C2 domain-containing subunit alpha (Homo sapiens, UniProt O00443); test: Inhibition of PI3KC2alpha (unknown origin)
Chain of Phosphatidylinositol 4-phosphate 3-kinase C2 domain-containing subunit alpha (O00443 whole entry, the tested form may be a part): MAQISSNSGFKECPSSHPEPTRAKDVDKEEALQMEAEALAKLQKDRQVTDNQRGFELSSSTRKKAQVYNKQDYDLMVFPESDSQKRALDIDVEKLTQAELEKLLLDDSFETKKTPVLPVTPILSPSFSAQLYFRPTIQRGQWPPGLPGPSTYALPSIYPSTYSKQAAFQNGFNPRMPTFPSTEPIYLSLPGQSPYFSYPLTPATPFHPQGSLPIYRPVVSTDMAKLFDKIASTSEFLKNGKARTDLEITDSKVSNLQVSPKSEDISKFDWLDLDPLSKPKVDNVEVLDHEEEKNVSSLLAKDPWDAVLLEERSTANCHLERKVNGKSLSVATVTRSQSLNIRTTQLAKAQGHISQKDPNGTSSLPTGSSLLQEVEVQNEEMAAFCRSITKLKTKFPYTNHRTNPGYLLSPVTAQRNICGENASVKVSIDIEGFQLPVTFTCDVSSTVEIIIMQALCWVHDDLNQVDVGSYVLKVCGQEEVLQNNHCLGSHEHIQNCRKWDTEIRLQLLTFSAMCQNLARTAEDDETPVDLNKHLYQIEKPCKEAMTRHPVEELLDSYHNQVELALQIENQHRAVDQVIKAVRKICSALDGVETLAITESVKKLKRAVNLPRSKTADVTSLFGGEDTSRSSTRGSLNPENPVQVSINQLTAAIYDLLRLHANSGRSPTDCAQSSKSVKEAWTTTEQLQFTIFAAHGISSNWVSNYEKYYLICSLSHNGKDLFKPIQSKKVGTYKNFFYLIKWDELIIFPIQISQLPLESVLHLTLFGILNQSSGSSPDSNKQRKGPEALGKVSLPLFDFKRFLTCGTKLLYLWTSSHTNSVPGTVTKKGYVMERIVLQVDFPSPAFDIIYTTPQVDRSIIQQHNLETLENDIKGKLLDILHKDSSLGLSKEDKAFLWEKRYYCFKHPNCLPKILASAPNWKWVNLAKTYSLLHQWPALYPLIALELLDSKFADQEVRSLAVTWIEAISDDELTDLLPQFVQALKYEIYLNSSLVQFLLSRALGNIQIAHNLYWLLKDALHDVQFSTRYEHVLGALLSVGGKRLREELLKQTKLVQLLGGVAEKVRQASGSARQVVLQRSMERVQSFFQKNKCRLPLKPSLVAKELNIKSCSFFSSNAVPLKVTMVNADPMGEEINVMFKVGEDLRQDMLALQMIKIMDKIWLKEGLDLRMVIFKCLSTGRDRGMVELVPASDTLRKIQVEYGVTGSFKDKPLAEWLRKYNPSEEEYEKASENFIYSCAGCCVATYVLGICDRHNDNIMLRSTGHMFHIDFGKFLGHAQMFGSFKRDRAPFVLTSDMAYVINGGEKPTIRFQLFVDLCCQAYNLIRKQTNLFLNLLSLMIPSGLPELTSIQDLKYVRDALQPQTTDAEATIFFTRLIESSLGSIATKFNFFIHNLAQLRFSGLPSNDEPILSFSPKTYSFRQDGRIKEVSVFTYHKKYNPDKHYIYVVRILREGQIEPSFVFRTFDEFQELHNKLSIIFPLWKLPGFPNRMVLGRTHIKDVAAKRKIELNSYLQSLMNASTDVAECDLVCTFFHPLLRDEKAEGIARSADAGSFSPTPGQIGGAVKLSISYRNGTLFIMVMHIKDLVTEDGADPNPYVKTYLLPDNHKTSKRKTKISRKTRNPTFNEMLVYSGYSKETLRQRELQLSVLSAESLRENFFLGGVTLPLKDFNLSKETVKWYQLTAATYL

[23] = Metabolic stability in mouse liver microsomes at 5 uM after 20 mins; details: liver microsomes
[24] = molecular target: Phosphatidylinositol 4,5-bisphosphate 3-kinase catalytic subunit beta isoform (Homo sapiens, UniProt P42338); details: PC-3
Chain of Phosphatidylinositol 4,5-bisphosphate 3-kinase catalytic subunit beta isoform (P42338 whole entry, looked up, canonical isoform): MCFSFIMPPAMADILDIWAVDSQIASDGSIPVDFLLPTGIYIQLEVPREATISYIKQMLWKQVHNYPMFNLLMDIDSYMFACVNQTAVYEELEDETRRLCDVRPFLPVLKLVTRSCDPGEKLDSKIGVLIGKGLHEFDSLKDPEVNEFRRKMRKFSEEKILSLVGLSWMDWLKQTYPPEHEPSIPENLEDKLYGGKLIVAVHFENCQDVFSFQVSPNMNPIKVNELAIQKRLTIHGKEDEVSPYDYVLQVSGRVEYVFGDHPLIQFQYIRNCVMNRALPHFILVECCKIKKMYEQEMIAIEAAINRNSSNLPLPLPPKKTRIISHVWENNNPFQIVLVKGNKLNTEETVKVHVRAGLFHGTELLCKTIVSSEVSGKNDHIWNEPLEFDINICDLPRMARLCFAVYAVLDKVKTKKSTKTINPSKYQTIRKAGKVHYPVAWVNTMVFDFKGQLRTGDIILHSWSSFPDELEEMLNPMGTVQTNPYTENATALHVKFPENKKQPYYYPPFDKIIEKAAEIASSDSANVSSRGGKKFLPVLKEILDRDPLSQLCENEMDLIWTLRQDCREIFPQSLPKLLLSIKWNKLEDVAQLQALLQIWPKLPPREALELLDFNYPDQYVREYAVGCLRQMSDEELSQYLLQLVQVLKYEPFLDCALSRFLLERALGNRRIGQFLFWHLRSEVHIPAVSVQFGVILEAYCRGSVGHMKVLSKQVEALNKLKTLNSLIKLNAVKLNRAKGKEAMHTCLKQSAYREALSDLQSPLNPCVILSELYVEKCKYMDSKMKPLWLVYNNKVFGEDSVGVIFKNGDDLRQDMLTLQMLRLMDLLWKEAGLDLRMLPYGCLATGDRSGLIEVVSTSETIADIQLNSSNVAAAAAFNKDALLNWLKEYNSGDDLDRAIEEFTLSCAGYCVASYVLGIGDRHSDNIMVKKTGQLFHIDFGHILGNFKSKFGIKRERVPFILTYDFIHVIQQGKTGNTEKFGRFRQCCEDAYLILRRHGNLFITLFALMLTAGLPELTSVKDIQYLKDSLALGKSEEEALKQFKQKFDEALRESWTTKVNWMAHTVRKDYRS
Description: Inhibition of PI3Kbeta-mediated Akt phosphorylation at S473 in PTEN-deficient human PC3 cells after 0.5 to 2 hrs by Immunoblotting assay

C[C@H]1Cc2ccccc2N1C(=O)Cc1nc(N2CCOCC2)cc(=O)[nH]1 [SAR-260301]
half-life [1]: 270 min
Tmax [2]: 30 min
Cmax [3]: 4770 ng/mL
half-life [4]: > 300 min
bioavailability [5]: 70%
Vd [6]: 8.1 L/kg
clearance [7]: 56.7 mL/min/kg
Activity (Mus musculus [8]): Non-toxic
T/C (UACC-62): 39%
Cp(f) (Plasma): 1820 nM
Activity (Mus musculus [9]): Non-toxic
T/C (PC-3): 61%
concentration at 24 h [10]: 76 nM
concentration at 16 h [11]: 26 nM
concentration at 1 h [12]: 24900 nM
inhibition in vivo at 100 mg/kg (Mus musculus [13]): ≥ 50%
bioavailability [14]: 55%
Tmax [15]: 15 min
Cmax [16]: 848 ng/mL
Vd [17]: 1 L/kg
clearance [18]: 83.3 mL/min/kg
AUC(0-inf) [19]: 600 ng·h/mL
IC50 [20]: 183 nM
IC50 [21]: 3810 nM
IC50 [22]: > 10000 nM
remaining at 20 min, 5 µM [23]: 19%
IC90 [24]: 2 nM
